Test results taken from PMC7366380, “Discovery of a Potent and Selective Covalent Inhibitor and Activity-Based Probe for the Deubiquitylating Enzyme UCHL1, with Antifibrotic Activity” (Journal of the American Chemical Society, 2020).
“And” between values parts separate entries of the source, which are not always exact repeats. Identical values can stand only once.

Columns and labels:
TRABID = target: T1, TRABID (Homo sapiens, UniProt Q9UGI0); test: Biochemical DUB selectivity profiling assay: TRABID; settings: Ub-Rho110 400 nM, buffer B; read-out: Biochemical IC50 range, TRABID
T1 sequence (Q9UGI0 1-708): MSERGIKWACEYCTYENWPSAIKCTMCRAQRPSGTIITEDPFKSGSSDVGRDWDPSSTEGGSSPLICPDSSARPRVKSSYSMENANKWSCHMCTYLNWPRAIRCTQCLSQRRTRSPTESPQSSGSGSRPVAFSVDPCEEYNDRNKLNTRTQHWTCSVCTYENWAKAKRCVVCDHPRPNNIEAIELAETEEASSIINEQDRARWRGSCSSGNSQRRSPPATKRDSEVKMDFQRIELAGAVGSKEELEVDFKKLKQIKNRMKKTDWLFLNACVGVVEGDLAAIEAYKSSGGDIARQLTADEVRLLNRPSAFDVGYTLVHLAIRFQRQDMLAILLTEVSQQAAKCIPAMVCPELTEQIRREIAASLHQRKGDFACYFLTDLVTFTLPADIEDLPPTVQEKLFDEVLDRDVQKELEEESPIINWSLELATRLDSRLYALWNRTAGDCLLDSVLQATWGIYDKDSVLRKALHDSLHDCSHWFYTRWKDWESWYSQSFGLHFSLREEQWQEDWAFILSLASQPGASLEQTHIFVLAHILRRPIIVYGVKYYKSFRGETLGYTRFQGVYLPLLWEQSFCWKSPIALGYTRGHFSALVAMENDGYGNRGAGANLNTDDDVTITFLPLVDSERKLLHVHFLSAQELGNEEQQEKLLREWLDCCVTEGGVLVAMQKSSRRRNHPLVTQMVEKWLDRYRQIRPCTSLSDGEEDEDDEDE
Experimental: (§1) DUB Assay Substrate Substrate
(§2) Buffer Concentration (nM) […]
(§3) Sepharose® 4B resin (GE Healthcare).
(§4) 10 kDa molecular weight cut-off (MWCO)).
(§5) Fractions containing protein
(§6) Protein concentration was […]
(§7) reaction volume of 21 μL. […]
(§8) compound (final concentration 5 nM).
(§9) IC50 values were determined
(§10) Biochemical DUB selectivity profiling assays […]
(§11) in 40 µL total reaction volume.

[1] = system: primary human bronchial fibroblasts from IPF patients (TGF-β1-triggered αSMA); test: Fibroblast-to-myofibroblast transition (FMT) assay, αSMA by high content analysis; settings: for αSMA inhibition / transdifferentiation (in words): IPF donor fibroblasts, TGF-β1, 3 days, high content imaging; for IC50: Homo sapiens, Fibroblast, 72 h, read-out: αSMA inhibition IC50 (95% CI)
UCHL3 [2] = target: T2, UCHL3 (Homo sapiens, UniProt P15374); test: Biochemical DUB selectivity profiling assay: UCHL3; settings: Ub-Lys-TAMRA 50 nM, buffer A; read-out: Biochemical IC50 range, UCHL3
T2 sequence (P15374 1-230): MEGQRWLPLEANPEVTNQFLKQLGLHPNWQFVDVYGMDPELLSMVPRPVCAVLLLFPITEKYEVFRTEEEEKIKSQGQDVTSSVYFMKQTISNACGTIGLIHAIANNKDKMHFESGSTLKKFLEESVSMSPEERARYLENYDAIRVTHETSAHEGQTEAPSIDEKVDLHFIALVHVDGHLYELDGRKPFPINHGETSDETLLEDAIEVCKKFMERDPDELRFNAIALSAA
Experimental: as §1, §2, §3, §4, §5, §6, §7, §8, §9, §10, §11

UCHL3 [3] = target: T2, UCHL3; test: In-cell proteome-wide competitive ABPP, HEK293: UCHL3; settings: for Log2 reporter intensity values: UCHL3: DMSO substract (FC); for Log2 reporter intensity values: UCHL3 / Log2 reporter intensity values: replicates A-C; for Log2 reporter intensity values: UCHL3, DMSO subtracted
USP10 = USP10 (Homo sapiens, UniProt Q14694); test: biochemical
USP28 = target: T3, USP28 (Homo sapiens, UniProt Q96RU2); test: Biochemical DUB selectivity profiling assay: USP28; settings: Ub-Lys-TAMRA 50 nM, buffer B; read-out: Biochemical IC50 range, USP28
T3 sequence (Q96RU2 1-1077): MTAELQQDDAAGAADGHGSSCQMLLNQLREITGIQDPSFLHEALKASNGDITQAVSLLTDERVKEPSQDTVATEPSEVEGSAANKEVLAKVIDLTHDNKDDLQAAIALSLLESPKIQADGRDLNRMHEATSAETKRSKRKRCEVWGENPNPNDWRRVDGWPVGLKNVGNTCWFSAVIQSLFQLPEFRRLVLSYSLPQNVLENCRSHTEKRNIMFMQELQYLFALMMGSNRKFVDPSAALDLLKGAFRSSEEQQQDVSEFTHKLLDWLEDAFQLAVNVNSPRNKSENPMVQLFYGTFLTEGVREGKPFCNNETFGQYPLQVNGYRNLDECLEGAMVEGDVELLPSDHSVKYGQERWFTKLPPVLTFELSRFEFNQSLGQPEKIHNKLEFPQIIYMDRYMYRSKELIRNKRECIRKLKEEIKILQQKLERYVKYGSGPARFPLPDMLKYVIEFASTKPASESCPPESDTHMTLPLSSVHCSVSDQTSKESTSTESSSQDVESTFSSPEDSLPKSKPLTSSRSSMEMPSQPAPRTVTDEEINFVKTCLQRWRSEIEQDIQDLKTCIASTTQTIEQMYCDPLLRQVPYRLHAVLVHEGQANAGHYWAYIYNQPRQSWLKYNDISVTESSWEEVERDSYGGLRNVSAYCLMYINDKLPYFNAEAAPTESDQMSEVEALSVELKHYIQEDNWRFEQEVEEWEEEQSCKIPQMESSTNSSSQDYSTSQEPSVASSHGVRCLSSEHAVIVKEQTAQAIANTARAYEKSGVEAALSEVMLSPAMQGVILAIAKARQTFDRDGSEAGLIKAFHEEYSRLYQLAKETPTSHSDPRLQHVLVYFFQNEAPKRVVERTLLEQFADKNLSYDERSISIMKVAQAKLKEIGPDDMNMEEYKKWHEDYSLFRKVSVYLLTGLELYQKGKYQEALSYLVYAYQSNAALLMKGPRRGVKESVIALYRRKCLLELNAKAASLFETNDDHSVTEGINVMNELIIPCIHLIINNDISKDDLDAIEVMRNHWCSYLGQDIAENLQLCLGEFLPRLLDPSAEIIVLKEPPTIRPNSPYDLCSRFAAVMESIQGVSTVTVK
Experimental: as §1, §2, §3, §4, §5, §6, §7, §8, §9, §10, §11

USP1 = USP1 (Homo sapiens, UniProt O94782); test: biochemical
USP1, sequence (O94782 whole entry, species assumed): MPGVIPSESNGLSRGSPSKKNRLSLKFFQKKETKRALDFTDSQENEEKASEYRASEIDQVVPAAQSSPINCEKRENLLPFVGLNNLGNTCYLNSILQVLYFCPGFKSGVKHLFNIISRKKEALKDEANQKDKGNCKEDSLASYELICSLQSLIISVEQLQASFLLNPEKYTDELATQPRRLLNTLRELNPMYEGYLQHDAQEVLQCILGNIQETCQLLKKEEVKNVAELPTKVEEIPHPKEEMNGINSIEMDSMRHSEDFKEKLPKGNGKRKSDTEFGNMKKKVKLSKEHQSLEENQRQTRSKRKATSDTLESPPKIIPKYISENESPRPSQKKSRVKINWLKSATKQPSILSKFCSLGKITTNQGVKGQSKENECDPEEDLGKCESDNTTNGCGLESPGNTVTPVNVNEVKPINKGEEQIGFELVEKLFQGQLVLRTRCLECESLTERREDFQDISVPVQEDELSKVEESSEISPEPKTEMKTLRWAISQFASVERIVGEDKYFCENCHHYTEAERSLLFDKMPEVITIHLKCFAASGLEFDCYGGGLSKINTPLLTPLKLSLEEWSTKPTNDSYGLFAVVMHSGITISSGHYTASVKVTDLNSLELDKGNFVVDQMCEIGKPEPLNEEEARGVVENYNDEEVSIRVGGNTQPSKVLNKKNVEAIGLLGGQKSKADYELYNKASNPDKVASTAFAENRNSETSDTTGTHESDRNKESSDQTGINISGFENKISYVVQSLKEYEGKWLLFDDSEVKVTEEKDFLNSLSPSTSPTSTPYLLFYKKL
USP1, sequence (Q8TAF3 whole entry partner, species assumed): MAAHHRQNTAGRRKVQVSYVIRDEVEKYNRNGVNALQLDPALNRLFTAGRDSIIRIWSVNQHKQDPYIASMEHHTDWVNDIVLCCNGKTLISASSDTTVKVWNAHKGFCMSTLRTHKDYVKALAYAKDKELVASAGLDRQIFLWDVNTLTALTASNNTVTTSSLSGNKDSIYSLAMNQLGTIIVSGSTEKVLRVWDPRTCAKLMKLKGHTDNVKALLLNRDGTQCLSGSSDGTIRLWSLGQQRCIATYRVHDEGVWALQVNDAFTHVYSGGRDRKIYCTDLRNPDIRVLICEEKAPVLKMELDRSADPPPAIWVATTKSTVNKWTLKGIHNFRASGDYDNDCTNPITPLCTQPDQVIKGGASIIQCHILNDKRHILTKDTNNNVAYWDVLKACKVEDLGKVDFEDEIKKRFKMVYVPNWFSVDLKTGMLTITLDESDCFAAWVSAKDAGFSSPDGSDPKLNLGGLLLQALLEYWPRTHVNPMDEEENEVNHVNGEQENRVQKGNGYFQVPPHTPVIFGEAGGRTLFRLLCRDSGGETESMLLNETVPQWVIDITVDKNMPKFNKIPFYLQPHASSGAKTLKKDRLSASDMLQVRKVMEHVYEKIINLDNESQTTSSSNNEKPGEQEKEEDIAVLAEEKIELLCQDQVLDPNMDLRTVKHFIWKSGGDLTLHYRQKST

USP10, sequence (Q14694 whole entry): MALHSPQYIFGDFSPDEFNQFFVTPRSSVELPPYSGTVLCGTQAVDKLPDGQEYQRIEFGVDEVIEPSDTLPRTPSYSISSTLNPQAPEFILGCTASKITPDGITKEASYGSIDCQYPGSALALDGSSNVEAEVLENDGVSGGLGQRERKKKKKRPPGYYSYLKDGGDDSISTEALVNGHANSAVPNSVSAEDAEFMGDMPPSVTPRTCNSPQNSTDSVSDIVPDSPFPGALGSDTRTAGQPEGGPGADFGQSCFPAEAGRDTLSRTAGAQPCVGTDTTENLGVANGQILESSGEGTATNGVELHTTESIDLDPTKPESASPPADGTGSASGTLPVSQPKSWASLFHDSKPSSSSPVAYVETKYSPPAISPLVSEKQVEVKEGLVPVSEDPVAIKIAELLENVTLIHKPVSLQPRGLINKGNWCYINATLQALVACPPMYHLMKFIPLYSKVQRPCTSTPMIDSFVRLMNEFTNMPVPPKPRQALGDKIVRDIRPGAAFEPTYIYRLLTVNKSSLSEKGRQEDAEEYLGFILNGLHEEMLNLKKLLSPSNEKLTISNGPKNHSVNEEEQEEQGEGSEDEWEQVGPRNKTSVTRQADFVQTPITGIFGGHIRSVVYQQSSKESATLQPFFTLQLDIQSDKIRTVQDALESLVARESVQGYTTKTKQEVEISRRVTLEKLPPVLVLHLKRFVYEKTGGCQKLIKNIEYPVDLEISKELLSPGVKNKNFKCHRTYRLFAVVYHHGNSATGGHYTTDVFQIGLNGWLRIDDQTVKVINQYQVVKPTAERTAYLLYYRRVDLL

SMILES | IC50 (TRABID) [µM] | αSMA inhibition / transdifferentiation (in words) [1] | IC50 (UCHL3 [2]) [µM] | IC50 (USP10) [µM] | IC50 (USP28) [µM] | IC50 (USP1) [µM] | IC50 [1] [µM] | further results
N#CN1CCC[C@H]1C(=O)N1CCc2c(-c3c[nH]c4ncccc34)cccc21 [Compound 1] | > 10 | inhibit transdifferentiation | 1 to 10 | > 10 | > 10 | > 10 |  | Log2 reporter intensity values: UCHL3 (UCHL3 [3]; 1 at 1 μM, competition with ABP 2): 0.8904 and 1.311 and 0.2787; Log2 reporter intensity values: UCHL3 (UCHL3 [3]; 1 at 4 μM, competition with ABP 2): 0.7742 and 0.7243 and 0.9234; UCHL3 response in proteome-wide competitive ABPP (UCHL3 [3]; HEK293, compound 60 min, then 2 (20 nM) 10 min): small response; Log2 reporter intensity values (UCHL3 [3]; 1_1 μM): -0.1178 and 0.3024 and -0.7296; Log2 reporter intensity values (UCHL3 [3]; 1_4 μM): -0.234 and -0.284 and -0.08483; Log2 reporter intensity values (UCHL3 [3]; 1 at 1 μM): -0.1675 and 0.3902 and -1.8434; Log2 reporter intensity values (UCHL3 [3]; 1 at 4 μM): -0.3692 and -0.4654 and -0.115
C#Cc1cnc2[nH]cc(-c3cccc4c3CCN4C(=O)[C@@H]3CCCN3C#N)c2c1 [Compound 2] | > 10 | inhibit transdifferentiation | 1 to 10 |  | > 10 |  |  | Log2 reporter intensity values: UCHL3 (UCHL3 [3]; 20 nM ABP 2 alone): 2.007 and 1.656 and 1.566; Log2 reporter intensity values (UCHL3 [3]; 20 nM ABP 2): 1.005 and 0.7277 and 0.6472 and 0.9988 and 0.6478 and 0.5579
N#CN1CCC[C@@H]1C(=O)N1CCc2c(-c3c[nH]c4ncccc34)cccc21 [Compound 3] | > 10 | not and minimal αSMA inhibition | > 10 | > 10 |  | > 10 | 2 | Log2 reporter intensity values: UCHL3 (UCHL3 [3]; 3 at 1 μM, competition with ABP 2): 1.501 and 1.531 and 1.889; Log2 reporter intensity values: UCHL3 (UCHL3 [3]; 3 at 4 μM, competition with ABP 2): 1.509 and 1.358 and 1.681; Log2 reporter intensity values (UCHL3 [3]; 3_1 μM): 0.4924 and 0.5226 and 0.8806; Log2 reporter intensity values (UCHL3 [3]; 3_4 μM): 0.5004 and 0.3501 and 0.6732; Log2 reporter intensity values (UCHL3 [3]; 3 at 1 μM): 0.5856 and 0.6143 and 0.9175; Log2 reporter intensity values (UCHL3 [3]; 3 at 4 μM): 0.5932 and 0.4418 and 0.7497
CC(=O)O/N=C1\C(=O)N(Cc2cc(Cl)ccc2Cl)c2ccc(Cl)cc21 [LDN-57444, reference compound] | > 10 | not and weak αSMA inhibition | > 10 | > 10 | > 10 | > 10 | 3.7 | 
CC(=O)O/N=C1\C(=O)N(Cc2cc(Cl)ccc2Cl)c2ccc(Cl)cc21 [LDN] |  |  |  |  |  |  |  | Log2 reporter intensity values: UCHL3 (UCHL3 [3]; LDN at 5 μM, competition with ABP 2): 1.511 and 1.383 and 1.619; Log2 reporter intensity values: UCHL3 (UCHL3 [3]; LDN at 25 μM, competition with ABP 2): 1.505 and 1.419 and 1.696; Log2 reporter intensity values (UCHL3 [3]; LDN at 5 μM): 0.5958 and 0.4677 and 0.6949; Log2 reporter intensity values (UCHL3 [3]; LDN at 25 μM): 0.5899 and 0.5052 and 0.7625; Log2 reporter intensity values (UCHL3 [3]; LDN_5 μM): 0.5031 and 0.3746 and 0.6105; Log2 reporter intensity values (UCHL3 [3]; LDN_25 μM): 0.4969 and 0.4111 and 0.6882
